ChEMBL document CHEMBL1155959, “Inhibitory effects of polymethoxy flavones isolated from Citrus reticulate on degranulation in rat basophilic leukemia RBL-2H3: enhanced inhibition by their combination” (Bioorg Med Chem, 2008)
The source made the active and inactive calls. The calls are words filed in the database; no cut-off is given here.

How the values were obtained:
[1] = system: Radical scavenging activity; experiment: Antioxidant activity assessed as DPPH radical scavenging activity; format: functional
[2] = molecular target: Mitogen-activated protein kinase 1 and 3 (ERK2 and ERK1) (Rattus norvegicus) (UniProt P63086+P21708); experiment: Inhibition of ERK1/2 phosphorylation in antigen-stimulated rat RBL-2H3 cells at 50 uM by Western blot analysis in presence of dinitrophenylated bovine serum albumin; format: cell-based
[3] = molecular target: Tyrosine-protein kinase SYK (Rattus norvegicus) (UniProt Q64725); experiment: Inhibition of Syk phosphorylation in antigen-stimulated rat RBL-2H3 cells at 50 uM by Western blot analysis in presence of dinitrophenylated bovine serum albumin; format: cell-based
RBL-2H3 [4] = experiment: Suppression of degranulation in IgE-sensitized rat RBL-2H3 cells assessed as inhibition of A-23187-stimulated histamine release after 30 mins; format: functional, cell-based
RBL-2H3 [5] = experiment: Suppression of degranulation in IgE-sensitized rat RBL-2H3 cells assessed as inhibition of antigen-stimulated histamine release after 30 mins in presence of dinitrophenylated bovine serum albumin; format: functional, cell-based
[6] = molecular target: T1, 1-phosphatidylinositol 4,5-bisphosphate phosphodiesterase gamma-1 (Rattus norvegicus) (UniProt P10686); experiment: Inhibition of PLC-gamma-1/gamma-2 phosphorylation in antigen-stimulated rat RBL-2H3 cells at 50 uM by Western blot analysis in presence of dinitrophenylated bovine serum albumin; format: cell-based
T1 sequence (whole entry): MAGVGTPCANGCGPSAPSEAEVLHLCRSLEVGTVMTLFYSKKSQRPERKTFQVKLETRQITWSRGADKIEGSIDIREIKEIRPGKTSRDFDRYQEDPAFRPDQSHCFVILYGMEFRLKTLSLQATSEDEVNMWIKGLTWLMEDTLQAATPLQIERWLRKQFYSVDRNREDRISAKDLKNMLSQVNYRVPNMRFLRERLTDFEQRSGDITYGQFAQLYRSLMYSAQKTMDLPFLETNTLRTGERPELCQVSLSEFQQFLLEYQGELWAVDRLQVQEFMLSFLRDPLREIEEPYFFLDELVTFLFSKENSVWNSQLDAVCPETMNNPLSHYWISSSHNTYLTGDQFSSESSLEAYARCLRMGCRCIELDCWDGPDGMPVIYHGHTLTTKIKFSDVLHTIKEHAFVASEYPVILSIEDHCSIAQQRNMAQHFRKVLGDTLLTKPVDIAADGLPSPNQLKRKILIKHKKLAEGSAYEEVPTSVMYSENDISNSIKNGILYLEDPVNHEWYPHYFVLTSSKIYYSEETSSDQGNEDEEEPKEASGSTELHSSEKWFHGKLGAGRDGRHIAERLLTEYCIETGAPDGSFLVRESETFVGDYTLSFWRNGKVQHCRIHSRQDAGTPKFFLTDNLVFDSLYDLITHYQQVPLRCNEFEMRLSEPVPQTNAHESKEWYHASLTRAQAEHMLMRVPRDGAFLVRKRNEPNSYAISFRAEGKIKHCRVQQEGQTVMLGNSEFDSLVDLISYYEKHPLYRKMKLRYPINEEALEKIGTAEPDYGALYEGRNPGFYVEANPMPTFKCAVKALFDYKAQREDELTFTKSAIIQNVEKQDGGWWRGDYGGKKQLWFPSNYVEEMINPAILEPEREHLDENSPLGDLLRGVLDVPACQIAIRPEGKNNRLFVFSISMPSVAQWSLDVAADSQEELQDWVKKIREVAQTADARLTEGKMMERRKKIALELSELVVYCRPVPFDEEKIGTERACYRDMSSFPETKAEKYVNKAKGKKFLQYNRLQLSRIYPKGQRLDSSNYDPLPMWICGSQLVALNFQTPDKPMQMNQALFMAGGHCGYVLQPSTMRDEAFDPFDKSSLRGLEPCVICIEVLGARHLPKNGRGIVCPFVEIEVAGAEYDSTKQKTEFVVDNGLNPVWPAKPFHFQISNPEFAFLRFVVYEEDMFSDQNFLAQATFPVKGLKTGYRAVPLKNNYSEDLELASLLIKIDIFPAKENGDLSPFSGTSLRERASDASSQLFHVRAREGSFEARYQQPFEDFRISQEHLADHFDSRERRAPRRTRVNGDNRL

[7] = molecular target: Mitogen-activated protein kinase 8 (Rattus norvegicus) (UniProt P49185); experiment: Inhibition of JNK1/2 phosphorylation in antigen-stimulated rat RBL-2H3 cells at 50 uM by Western blot analysis in presence of dinitrophenylated bovine serum albumin; format: cell-based
RBL-2H3 [8] = experiment: Inhibition of p38 MAPK phosphorylation in antigen-stimulated rat RBL-2H3 cells at 50 uM by Western blot analysis in presence of dinitrophenylated bovine serum albumin; format: cell-based
RBL-2H3 [9] = experiment: Effect on antigen-stimulated intracellular ROS production in IgE-sensitized CM-H2DCF-DA-treated rat RBL-2H3 cells assessed as increase in 2',7'-dichlorofluorescein oxidation at 50 uM after 30 mins in presence of dinitrophenylated bovine serum albumin; format: functional, cell-based
RBL-2H3 [10] = experiment: Inhibition of degranulation in IgE-sensitized rat RBL-2H3 cells assessed as inhibition of antigen-stimulated intracellular calcium elevation after 30 mins in presence of dinitrophenylated bovine serum albumin; format: functional, cell-based
[11] = molecular target: Tyrosine-protein kinase Lyn (Rattus norvegicus) (UniProt Q07014); experiment: Inhibition of Lyn phosphorylation in antigen-stimulated rat RBL-2H3 cells at 50 uM by Western blot analysis in presence of dinitrophenylated bovine serum albumin; format: cell-based
Chain of Tyrosine-protein kinase Lyn (Rattus norvegicus) (Q07014 whole entry): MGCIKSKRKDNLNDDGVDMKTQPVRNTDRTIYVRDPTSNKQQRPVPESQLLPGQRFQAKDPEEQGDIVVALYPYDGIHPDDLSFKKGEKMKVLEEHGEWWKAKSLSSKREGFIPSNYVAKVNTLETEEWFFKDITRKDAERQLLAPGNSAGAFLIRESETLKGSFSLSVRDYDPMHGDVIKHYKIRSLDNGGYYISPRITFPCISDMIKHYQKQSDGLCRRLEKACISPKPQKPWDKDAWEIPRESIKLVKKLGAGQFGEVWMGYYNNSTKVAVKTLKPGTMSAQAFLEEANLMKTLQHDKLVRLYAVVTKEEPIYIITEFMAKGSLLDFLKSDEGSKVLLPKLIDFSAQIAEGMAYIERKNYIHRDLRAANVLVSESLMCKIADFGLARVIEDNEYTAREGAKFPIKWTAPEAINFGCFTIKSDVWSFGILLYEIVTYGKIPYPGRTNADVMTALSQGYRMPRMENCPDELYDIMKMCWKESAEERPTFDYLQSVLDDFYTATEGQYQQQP

Chain of Mitogen-activated protein kinase 8 (Rattus norvegicus) (P49185 whole entry): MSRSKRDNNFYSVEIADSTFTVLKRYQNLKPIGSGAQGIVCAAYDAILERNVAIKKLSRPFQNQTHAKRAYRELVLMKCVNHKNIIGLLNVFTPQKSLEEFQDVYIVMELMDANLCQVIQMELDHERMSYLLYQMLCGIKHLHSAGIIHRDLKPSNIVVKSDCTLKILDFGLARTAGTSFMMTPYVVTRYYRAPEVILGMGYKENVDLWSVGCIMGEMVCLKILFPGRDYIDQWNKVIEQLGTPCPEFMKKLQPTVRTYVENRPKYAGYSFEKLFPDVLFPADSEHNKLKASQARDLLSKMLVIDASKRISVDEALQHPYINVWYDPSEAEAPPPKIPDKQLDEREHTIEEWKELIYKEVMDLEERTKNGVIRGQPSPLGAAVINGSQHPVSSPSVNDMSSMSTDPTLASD
Chain of Mitogen-activated protein kinase 1 and 3 (ERK2 and ERK1) (Rattus norvegicus) (P21708 whole entry, looked up): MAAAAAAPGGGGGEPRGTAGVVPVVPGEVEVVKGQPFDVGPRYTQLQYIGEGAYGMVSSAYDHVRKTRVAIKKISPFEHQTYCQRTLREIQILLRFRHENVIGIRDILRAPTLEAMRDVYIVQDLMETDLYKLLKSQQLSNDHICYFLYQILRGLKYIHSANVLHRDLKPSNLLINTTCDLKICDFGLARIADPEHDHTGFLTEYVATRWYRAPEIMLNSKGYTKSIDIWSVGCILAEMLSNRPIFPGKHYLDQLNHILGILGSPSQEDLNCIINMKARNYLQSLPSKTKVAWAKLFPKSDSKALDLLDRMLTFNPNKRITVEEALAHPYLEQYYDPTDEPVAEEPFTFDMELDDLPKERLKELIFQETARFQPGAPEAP
Chain of Mitogen-activated protein kinase 1 and 3 (ERK2 and ERK1) (Rattus norvegicus) (P63086 whole entry, looked up): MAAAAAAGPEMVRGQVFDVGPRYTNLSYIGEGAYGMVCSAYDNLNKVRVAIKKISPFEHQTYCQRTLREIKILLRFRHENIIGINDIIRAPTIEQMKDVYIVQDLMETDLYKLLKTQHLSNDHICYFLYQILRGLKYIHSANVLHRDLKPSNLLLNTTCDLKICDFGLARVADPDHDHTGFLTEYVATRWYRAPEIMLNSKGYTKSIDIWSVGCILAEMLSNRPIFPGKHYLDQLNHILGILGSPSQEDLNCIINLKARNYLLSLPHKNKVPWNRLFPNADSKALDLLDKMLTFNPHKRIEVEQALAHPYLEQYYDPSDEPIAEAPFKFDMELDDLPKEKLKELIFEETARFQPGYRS
Chain of Tyrosine-protein kinase SYK (Rattus norvegicus) (Q64725 whole entry, looked up): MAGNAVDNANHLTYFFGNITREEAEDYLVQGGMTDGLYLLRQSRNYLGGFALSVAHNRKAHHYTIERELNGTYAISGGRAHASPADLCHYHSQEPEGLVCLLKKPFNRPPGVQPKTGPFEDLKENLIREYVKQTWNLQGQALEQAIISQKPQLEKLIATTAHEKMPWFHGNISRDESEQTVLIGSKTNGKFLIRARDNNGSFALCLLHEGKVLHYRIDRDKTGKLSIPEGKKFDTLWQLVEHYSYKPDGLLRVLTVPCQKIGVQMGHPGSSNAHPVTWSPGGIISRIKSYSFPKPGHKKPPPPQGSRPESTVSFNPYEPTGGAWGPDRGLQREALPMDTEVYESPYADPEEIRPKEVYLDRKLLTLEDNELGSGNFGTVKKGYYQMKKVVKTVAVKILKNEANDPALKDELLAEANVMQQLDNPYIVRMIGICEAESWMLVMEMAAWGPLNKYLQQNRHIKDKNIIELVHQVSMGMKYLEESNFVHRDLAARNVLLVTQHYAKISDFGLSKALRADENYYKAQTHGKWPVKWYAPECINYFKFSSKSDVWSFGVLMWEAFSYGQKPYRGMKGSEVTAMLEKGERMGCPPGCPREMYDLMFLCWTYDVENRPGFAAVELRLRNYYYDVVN

Row | Compound | ED50 [1] [µM] | Activity [2] | Activity [3] | Activity (RBL-2H3 [4]) | Activity (RBL-2H3 [5]) | Activity [6] | Activity [7] | Activity (RBL-2H3 [8]) | Activity (RBL-2H3 [9]) | Activity (RBL-2H3 [10]) | Activity [11]
1 | VITAMIN E | 78 | – | – | – | – | – | – | – | – | – | –
2 | O=C1O[C@H]([C@@H](O)CO)C(O)=C1O | 18 | – | – | – | – | – | – | – | – | – | –
3 | COc1ccc(-c2cc(=O)c3c(O)c(OC)c(OC)cc3o2)cc1OC | < 100 | Active | Active | Active | Dose-dependent effect | Active | inactive | inactive | Active | Active | inactive
4 | COc1ccc(OC)c(-c2cc(=O)c3c(OC)c(OC)cc(OC)c3o2)c1 | < 100 | Active | Active | Active | Dose-dependent effect | Active | inactive | inactive | Active | Active | inactive
5 | O=C(O[C@@H]1Cc2c(O)cc(O)cc2O[C@@H]1c1cc(O)c(O)c(O)c1)c1cc(O)c(O)c(O)c1 | 7 | – | – | – | – | – | – | – | – | – | –
6 | COc1cc(-c2cc(=O)c3c(OC)c(OC)c(OC)cc3o2)cc(OC)c1OC | < 100 | Active | Active | Active | Dose-dependent effect | Active | inactive | inactive | Active | inactive | inactive
